Measured values published in ChEMBL document CHEMBL5291721, “A preclinical secondary pharmacology resource illuminates target-adverse drug reaction associations of marketed drugs” (Nat Commun, 2023).
*1 amine or outer side, *2 acyl side, *3 side chain or, on linkers, in order; H or OH if unused. Where a SMILES comes first, the peptide text is derived from it. Bridges are numbered along the chain shown (N, C = ends). [ ]: non-standard residue; d: D form. The star is where a group is joined. hTyr(3S-OH,4S-OH,3'-OSO3H) = N[C@H](C(=O)O)[C@H](O)[C@@H](O)c1ccc(O)c(OS(=O)(=O)O)c1; Orn(4R-OH,5R-OH) = O=C([C@H](C[C@@H](O)[C@@H](O)N[*:3])N[*:1])[*:2]; Pro(3S-OH,4S-Me) = C[C@H]1CN[C@H](C(=O)O)[C@H]1O; X1 = CCCCCOc1ccc(-c2cc(-c3ccc(C(=O)*)cc3)no2)cc1; Gln(3R-OH) = NC(=O)C[C@@H](O)[C@H](N)C(=O)O; Hyp = O=C(O)[C@@H]1C[C@@H](O)CN1

Tests used:
[1] = biological target: Gamma-aminobutyric acid receptor subunit alpha-1 (Rattus norvegicus, UniProt P62813)
[2] = biological target: Prostaglandin G/H synthase 1 (Homo sapiens, UniProt P23219); assay type: functional
[3] = biological target: T1, Alpha-2A adrenergic receptor (Homo sapiens, UniProt P08913)
T1 sequence (P08913 whole entry): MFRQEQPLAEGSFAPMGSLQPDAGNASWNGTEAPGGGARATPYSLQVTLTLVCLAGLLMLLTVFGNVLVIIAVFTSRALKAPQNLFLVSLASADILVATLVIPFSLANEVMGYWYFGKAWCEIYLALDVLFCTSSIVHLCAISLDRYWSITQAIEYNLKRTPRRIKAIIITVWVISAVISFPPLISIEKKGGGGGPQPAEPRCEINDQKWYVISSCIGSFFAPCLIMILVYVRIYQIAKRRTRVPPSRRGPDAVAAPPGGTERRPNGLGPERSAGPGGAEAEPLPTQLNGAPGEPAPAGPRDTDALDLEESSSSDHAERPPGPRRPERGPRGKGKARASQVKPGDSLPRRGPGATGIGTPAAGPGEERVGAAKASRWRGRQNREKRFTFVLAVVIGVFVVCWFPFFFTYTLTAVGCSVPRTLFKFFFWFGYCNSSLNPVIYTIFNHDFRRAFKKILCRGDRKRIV

Thromboxane A2 receptor = biological target: T2, Thromboxane A2 receptor (Homo sapiens, UniProt P21731); assay type: functional, cell-based
T2 sequence (P21731 whole entry): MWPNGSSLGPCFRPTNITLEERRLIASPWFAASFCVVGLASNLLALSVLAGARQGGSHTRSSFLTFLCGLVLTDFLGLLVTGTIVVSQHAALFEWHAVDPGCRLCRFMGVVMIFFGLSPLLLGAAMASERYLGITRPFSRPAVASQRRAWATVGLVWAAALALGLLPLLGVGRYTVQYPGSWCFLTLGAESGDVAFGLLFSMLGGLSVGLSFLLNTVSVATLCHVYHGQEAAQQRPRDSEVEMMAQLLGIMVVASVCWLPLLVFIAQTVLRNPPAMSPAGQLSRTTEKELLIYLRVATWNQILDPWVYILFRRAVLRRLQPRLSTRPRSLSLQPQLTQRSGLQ

[4] = biological target: 3',5'-cyclic-AMP phosphodiesterase 4D (Homo sapiens, UniProt Q08499); assay type: functional
Adenosine receptor A2a = Adenosine receptor A2a (Homo sapiens, UniProt P29274)
Endothelin-1 receptor = biological target: T3, Endothelin-1 receptor (Homo sapiens, UniProt P25101)
T3 sequence (P25101 whole entry): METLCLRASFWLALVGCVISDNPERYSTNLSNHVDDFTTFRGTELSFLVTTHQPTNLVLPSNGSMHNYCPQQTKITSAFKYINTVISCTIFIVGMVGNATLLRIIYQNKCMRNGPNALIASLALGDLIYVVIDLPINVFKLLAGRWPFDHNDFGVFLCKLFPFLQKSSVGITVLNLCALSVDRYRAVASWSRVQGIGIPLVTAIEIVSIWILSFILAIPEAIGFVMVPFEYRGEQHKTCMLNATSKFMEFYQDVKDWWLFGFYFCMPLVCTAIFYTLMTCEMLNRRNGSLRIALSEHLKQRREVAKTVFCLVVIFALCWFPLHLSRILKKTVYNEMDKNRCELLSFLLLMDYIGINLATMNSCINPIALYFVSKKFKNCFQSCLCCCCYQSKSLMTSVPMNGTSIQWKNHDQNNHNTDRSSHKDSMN

Histamine H3 receptor = Histamine H3 receptor (Homo sapiens, UniProt Q9Y5N1)
B2 bradykinin receptor = biological target: T4, B2 bradykinin receptor (Homo sapiens, UniProt P30411)
T4 sequence (P30411 whole entry): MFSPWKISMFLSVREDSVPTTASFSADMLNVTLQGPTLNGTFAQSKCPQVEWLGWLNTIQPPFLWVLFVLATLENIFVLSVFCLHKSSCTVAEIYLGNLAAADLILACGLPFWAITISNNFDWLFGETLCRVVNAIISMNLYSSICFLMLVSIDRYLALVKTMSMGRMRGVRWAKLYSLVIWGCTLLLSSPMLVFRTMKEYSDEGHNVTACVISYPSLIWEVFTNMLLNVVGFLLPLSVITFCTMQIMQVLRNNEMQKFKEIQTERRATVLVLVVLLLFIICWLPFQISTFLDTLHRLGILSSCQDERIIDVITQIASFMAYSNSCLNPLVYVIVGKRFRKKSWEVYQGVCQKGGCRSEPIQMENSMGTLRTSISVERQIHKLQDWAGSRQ

Progesterone receptor = biological target: T5, Progesterone receptor (Homo sapiens, UniProt P06401); assay type: functional
T5 sequence (P06401 whole entry): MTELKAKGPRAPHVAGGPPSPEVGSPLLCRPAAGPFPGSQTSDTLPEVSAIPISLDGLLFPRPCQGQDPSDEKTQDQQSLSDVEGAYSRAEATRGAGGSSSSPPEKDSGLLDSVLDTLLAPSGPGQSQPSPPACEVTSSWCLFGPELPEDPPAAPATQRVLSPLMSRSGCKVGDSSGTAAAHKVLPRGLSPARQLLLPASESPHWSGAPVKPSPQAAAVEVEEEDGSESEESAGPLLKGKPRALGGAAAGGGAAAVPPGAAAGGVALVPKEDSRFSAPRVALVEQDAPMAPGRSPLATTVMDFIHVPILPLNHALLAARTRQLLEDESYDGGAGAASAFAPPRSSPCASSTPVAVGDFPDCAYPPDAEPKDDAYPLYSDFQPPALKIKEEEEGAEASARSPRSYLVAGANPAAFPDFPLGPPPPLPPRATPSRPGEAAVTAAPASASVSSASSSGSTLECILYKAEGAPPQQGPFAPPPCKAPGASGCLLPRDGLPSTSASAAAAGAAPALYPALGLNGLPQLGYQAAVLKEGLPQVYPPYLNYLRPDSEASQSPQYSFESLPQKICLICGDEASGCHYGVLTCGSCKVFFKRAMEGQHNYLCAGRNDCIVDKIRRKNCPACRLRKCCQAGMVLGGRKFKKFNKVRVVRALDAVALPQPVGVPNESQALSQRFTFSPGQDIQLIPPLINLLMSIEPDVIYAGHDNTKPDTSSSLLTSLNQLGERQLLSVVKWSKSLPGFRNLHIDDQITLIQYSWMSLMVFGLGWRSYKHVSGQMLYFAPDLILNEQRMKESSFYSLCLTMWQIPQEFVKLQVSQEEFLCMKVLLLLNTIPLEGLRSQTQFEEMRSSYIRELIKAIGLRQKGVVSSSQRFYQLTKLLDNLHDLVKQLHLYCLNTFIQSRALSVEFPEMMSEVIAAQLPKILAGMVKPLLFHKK
Further: assay procedure not described here.

Gamma-aminobutyric acid receptor subunit alpha-1, sequence (P62813 whole entry): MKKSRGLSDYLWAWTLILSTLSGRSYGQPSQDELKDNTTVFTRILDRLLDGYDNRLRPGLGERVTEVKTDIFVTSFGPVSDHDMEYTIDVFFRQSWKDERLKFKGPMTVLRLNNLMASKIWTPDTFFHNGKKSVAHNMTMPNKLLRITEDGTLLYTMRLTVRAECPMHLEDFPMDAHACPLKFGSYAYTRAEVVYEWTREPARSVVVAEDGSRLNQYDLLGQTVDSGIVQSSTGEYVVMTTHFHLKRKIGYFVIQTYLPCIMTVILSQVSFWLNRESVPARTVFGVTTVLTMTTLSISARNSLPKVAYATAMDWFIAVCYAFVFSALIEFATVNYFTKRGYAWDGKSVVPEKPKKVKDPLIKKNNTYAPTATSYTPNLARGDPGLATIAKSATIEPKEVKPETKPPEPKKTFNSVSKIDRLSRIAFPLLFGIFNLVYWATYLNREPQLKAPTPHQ
Adenosine receptor A2a, sequence (P29274 whole entry): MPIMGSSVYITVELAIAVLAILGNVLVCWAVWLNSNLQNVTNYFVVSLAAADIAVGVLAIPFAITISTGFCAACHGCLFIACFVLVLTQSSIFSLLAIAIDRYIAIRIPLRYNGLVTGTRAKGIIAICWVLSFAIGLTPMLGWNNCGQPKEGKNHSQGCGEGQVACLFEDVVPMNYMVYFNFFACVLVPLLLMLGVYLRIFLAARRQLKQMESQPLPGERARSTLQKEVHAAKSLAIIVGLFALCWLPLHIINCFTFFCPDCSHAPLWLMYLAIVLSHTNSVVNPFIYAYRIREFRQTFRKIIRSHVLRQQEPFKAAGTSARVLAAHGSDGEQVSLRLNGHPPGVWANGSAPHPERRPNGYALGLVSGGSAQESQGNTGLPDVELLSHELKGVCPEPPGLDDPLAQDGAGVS
3',5'-cyclic-AMP phosphodiesterase 4D, sequence (Q08499 whole entry): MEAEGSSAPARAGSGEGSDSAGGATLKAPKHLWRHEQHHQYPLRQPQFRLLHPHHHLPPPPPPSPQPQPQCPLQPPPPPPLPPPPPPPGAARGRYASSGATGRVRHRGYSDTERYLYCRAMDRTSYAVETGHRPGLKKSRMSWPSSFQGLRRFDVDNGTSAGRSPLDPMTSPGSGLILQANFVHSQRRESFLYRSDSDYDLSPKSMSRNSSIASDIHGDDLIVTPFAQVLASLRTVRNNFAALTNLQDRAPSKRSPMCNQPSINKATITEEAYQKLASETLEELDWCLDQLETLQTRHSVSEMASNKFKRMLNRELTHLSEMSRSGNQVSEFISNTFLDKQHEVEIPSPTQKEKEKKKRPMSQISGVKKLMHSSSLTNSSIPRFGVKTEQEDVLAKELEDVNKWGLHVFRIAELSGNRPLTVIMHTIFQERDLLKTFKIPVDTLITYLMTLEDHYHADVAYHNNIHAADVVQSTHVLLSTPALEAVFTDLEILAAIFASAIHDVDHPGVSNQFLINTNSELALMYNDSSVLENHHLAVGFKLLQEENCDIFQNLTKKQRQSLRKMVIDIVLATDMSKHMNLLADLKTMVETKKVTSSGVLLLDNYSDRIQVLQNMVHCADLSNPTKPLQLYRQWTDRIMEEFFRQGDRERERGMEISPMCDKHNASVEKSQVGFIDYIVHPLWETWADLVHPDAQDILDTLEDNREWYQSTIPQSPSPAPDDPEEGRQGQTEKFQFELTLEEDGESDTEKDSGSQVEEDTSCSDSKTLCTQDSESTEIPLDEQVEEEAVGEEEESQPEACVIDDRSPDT
Histamine H3 receptor, sequence (Q9Y5N1 whole entry): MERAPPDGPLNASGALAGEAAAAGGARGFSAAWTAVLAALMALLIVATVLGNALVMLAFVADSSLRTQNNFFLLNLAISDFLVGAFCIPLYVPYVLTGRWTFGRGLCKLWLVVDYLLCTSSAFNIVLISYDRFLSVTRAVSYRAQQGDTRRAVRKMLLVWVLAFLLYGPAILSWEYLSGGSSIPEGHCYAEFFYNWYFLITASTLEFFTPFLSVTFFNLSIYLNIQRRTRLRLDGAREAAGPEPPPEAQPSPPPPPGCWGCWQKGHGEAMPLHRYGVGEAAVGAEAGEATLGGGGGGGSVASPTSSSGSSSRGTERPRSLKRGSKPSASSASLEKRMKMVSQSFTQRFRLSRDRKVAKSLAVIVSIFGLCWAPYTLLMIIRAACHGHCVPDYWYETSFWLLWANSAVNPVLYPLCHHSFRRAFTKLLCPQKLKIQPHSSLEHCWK
Prostaglandin G/H synthase 1, sequence (P23219 whole entry): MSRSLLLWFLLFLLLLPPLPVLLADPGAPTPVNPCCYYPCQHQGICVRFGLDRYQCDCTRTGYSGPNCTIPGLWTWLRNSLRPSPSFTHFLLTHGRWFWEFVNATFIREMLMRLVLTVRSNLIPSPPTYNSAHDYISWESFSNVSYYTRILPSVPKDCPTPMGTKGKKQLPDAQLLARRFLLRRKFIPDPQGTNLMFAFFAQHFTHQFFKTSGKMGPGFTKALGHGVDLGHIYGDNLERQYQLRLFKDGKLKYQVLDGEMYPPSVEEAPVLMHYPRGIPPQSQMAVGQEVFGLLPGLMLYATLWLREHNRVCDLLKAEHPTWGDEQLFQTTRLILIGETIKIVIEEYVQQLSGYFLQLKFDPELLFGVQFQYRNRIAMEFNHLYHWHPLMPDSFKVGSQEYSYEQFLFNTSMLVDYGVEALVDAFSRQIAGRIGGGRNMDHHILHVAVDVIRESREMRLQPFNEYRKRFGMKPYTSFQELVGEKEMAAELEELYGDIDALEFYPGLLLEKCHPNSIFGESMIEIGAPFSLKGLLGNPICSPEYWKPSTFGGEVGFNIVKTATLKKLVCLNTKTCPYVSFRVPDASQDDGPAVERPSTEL

Compound | AC50 [1] | AC50 [2] | AC50 [3] | AC50 (Thromboxane A2 receptor) | AC50 [4] | AC50 (Adenosine receptor A2a) | AC50 (Endothelin-1 receptor) | AC50 (Histamine H3 receptor) | AC50 (B2 bradykinin receptor) | AC50 (Progesterone receptor)
COc1nccnc1NS(=O)(=O)c1ccc(N)cc1 | > 30 µM | > 30 µM | > 30 µM | > 30 µM |  |  |  |  |  | 
Cc1ccc([C@@H]2O[C@H](CO)[C@@H](O)[C@H](O)[C@H]2O)cc1Cc1ccc(-c2ccc(F)cc2)s1 [CANAGLIFLOZIN ANHYDROUS] | > 30 µM | > 30 µM | > 30 µM | > 30 µM |  |  |  |  |  | 
CN(C)CCN(Cc1ccc(Cl)cc1)c1ccccn1 [CHLOROPYRAMINE] | > 30 µM | > 30 µM | 12.2 µM | > 30 µM |  |  |  |  |  | 
O=C(O)c1cc(=O)c2ccccc2o1 [CHROMOCARB] | > 30 µM | 23.9 µM | > 30 µM | > 30 µM |  |  |  |  |  | 
N[C@@H](CSSC[C@H](N)C(=O)O)C(=O)O [CYSTINE] | > 30 µM | > 30 µM | > 30 µM | > 30 µM |  |  |  |  |  | 
C[C@]12CC[C@@H]3c4ccc(O)cc4CC[C@H]3[C@@H]1CC[C@@H]2OC(=O)CCC1CCCC1 [ESTRADIOL CYPIONATE] | > 30 µM | 4.37 µM | > 30 µM | > 30 µM |  |  |  |  |  | 
CCC(=O)O[C@@H](O[P@](=O)(CCCCc1ccccc1)CC(=O)N1C[C@H](C2CCCCC2)C[C@H]1C(=O)O)C(C)C [FOSINOPRIL] | > 30 µM | > 30 µM | > 30 µM | > 30 µM | > 30 µM |  |  |  |  | 
CC1(C)O[C@@H]2C[C@H]3[C@@H]4CCC5=CC(=O)CC[C@]5(C)[C@@]4(F)[C@@H](O)C[C@]3(C)[C@]2(C(=O)CCl)O1 [HALCINONIDE] | > 30 µM | > 30 µM | > 30 µM | > 30 µM |  |  |  |  |  | 
C[C@]12CCC(=O)C=C1CC[C@@H]1[C@@H]2[C@@H](O)C[C@@]2(C)[C@H]1CC[C@]2(O)C(=O)COC(=O)CCC(=O)O [HYDROCORTISONE HEMISUCCINATE ANHYDROUS] | > 30 µM | > 30 µM | > 30 µM | > 30 µM |  |  |  |  |  | 
N=C(N)NCc1cccc([123I])c1 [IOBENGUANE I 123] | > 30 µM | > 30 µM | 0.488 µM | > 30 µM |  |  |  |  |  | 
CC(C)(N)C(=O)N[C@H](Cc1c[nH]c2ccccc12)C(=O)N[C@H](Cc1c[nH]c2ccccc12)NC=O [MACIMORELIN] | > 30 µM | > 30 µM | > 30 µM | > 30 µM |  |  |  |  |  | 
C=C1c2c(Cl)ccc(O)c2C(=O)C2=C(O)[C@]3(O)C(=O)C(C(N)=O)=C(O)[C@@H](N(C)C)[C@@H]3[C@@H](O)[C@H]12 [MECLOCYCLINE] | > 30 µM | > 30 µM | > 30 µM | > 30 µM |  |  |  |  |  | 
CCCCCOc1ccc(-c2cc(-c3ccc(C(=O)N[C@H]4C[C@@H](O)[C@@H](O)NC(=O)[C@@H]5[C@@H](O)[C@@H](C)CN5C(=O)[C@H]([C@H](O)CC(N)=O)NC(=O)[C@H]([C@H](O)[C@@H](O)c5ccc(O)c(OS(=O)(=O)O)c5)NC(=O)[C@@H]5C[C@@H](O)CN5C(=O)[C@H]([C@@H](C)O)NC4=O)cc3)no2)cc1 [MICAFUNGIN] (X1-[Orn(4R-OH,5R-OH)]T[Hyp][hTyr(3S-OH,4S-OH,3'-OSO3H)][Gln(3R-OH)][Pro(3S-OH,4S-Me)]; lactam 1-C) | > 30 µM | > 30 µM | > 30 µM | > 30 µM |  |  |  |  |  | 
C#C[C@]1(O)CC[C@H]2[C@@H]3CCC4=C(CCC(=O)C4)[C@H]3CC[C@@]21C [NORETHYNODREL] | > 30 µM | 11.8 µM | > 30 µM | > 30 µM |  |  |  |  |  | 
CNC[C@H](O)c1cccc(O)c1 [PHENYLEPHRINE] | > 30 µM | > 30 µM |  | > 30 µM | > 30 µM | > 30 µM | > 30 µM | > 10 µM | > 30 µM | 
CC(C)COc1ccc(CNC(=O)N(Cc2ccc(F)cc2)C2CCN(C)CC2)cc1 [PIMAVANSERIN] | > 30 µM | > 30 µM | > 30 µM | 14.1 µM |  |  |  |  |  | 
CNC(=O)c1cc(Oc2ccc(NC(=O)Nc3ccc(Cl)c(C(F)(F)F)c3)c(F)c2)ccn1 [REGORAFENIB] | > 30 µM | > 30 µM | > 10 µM | > 30 µM | > 30 µM | > 30 µM |  |  |  | > 30 µM
CCCCNc1ccc(C(=O)OCCN(C)C)cc1 [TETRACAINE] | > 30 µM | > 30 µM | > 30 µM | > 30 µM | > 30 µM | > 30 µM | > 30 µM | > 10 µM | > 30 µM | 
Cn1c(=O)c2[nH]cnc2n(C)c1=O [THEOPHYLLINE] | > 30 µM | > 30 µM | > 30 µM | > 30 µM |  |  | > 30 µM | > 10 µM | > 30 µM | 
CN1CCN(CCCN2c3ccccc3Sc3ccc(S(=O)(=O)N(C)C)cc32)CC1 [THIOPROPERAZINE] | > 30 µM | > 30 µM | 1.42 µM | > 30 µM | 13 µM |  |  |  |  | 
CC1(C)O[C@@H]2[C@@H](CO[C@@]3(COS(N)(=O)=O)OC(C)(C)O[C@@H]23)O1 [TOPIRAMATE] | > 30 µM | > 30 µM | > 30 µM | > 30 µM | > 30 µM | > 30 µM | > 30 µM | > 10 µM | > 30 µM | 
NCCc1ccc(O)cc1 [TYRAMINE] | > 30 µM | > 30 µM | 22 µM | > 30 µM |  |  |  |  |  | 
